Key:
caspase-3 = assay: UNC5B-induced caspase-3 activity in HeLa UNC5B cells; format: cell-based, Human; details: doxycycline 2 μg/mL; 18 hours
Protocol: Stable Hela cells inducible for UNC5B (HeLa UNC5B) were treated with doxycycline (Dox) at 2 μg/mL, in combination with the indicated doses of the proteasome inhibitors MG132 and bortezomib (BTZ).
Caspase-3 and -9 activity assays were performed as described previously (Paradisi et al., 2013; Paradisi et al., 2009). Briefly, HCT116 and HeLa cells were seeded and treated as for DNA fragmentation assay. Cells were then collected and caspase-3/caspase 9 activity assays were performed using the Caspase-3/Caspase-9 Fluorometric Assay Kit (BioVision, Milpitas, CA, USA), according to the manufacturer's instructions. Caspase activity (activity/min/mg of protein) was calculated from a 1 h kinetic cycle reading on a spectrofluorometer (405 nm/510 nm, Infinite F500, Tecan, Männedorf, Switzerland).

caspase-9 = assay: UNC5B-induced caspase-9 activity in HeLa UNC5B cells; format: cell-based, Human; details: Dox; 18 hours
Protocol: FIG. 5. UNC5B-mediated Mcl-1 degradation induces MOMP and caspase-9 activation. (A): UNC5B over-expression triggers Mitochondrial Outer Membrane Permeabilization (MOMP) in a COMMD2/CRL3 complex-dependent manner. Hela cells were transfected with scramble (siCTRL), COMMD2 (siCOMMD2-1) or RBX1 (siRBX1-1) siRNAs. 24 hours after transfection, cells were treated with Dox and after further 18 hours mitochondrial depolarization quantified by 5′,6,6′-tetrachloro-1,1′,3,3′-tetraethylbenzimi-dazolylcarbocyanine iodide (JC-1) dye staining, using NucleoCounter NC3000 (n=3, **** p<0.0001, ordinary two-way ANOVA with Tukey's multiple comparisons test). Values are given as means±SEM. (B,C,D): Apoptotic cell death induced by UNC5B over-expression requires caspase-9. HeLa UNC5B cells were transfected with scramble (siCTRL) or caspase-9 (siCASP9) siRNAs and 24 hours later treated with the indicated concentrations of Dox. Propidium iodide (PI)-positive cells were assessed in real-time up to 48 hours using Incucyte Zoom instrument (C) (n=[…], Kolmogorov-Smirnov test). DNA fragmentation was assessed by FACS analysis (D) and caspase-3 was measured using caspase-3 fluorometric kit (E), both 18 hours after treatment (n=[…], **** p<0.0001, ordinary two-way ANOVA with Šidák's multiple comparisons test). Values are given as means±SEM. […] HeLa UNC5B cells were treated with Dox and 18 hours later caspase-9 and -8 activities were assessed by fluorometric kit, using specific substrates (n=3, ^nsp>0.05, *p<0.05, Mann-Whitney test, one-tailed). […] 24 hours later, cells were treated with Dox and caspase-9 activity was measured by fluorometric kit (n=3, **** p<0.0001, ordinary two-way ANOVA with Tukey's multiple comparisons test). […] 18 hours after treatment, caspase-9 activity was assessed with the fluorometric kit (n=5, *p<0.05, ** p<0.01, *** p<0.001, **** p<0.0001, ordinary two-way ANOVA with Tukey's multiple comparisons test). […] Cells were then treated with Dox and Mcl-1 protein was evaluated by western blot. […]

[1] = human, in vivo; cited from earlier work

Row | Molecule | UNC5B-induced caspase-3 activation (caspase-3) | UNC5B-induced caspase-9 activation (caspase-9) | safety profile [1]
1 | CC(C)C[C@H](NC(=O)[C@H](Cc1ccccc1)NC(=O)c1cnccn1)B(O)O [bortezomib] | suppressed | sufficient to prevent UNC5B-induced caspase-9 activation | 
2 | NP137: humanized anti-netrin-1 monoclonal antibody, VH SEQ ID NO: 22, VL SEQ ID NO: 16, human IgG1 (antibody, V domains shown, human IgG1 constant region; humanized variant; MISC_FEATURE - CDR according to IGMT) VH: QVQLQQSGPGLVKPSQTLSLTCAISGYTFTSYNMHWVRQATGQGLEWMGAIYPGNGDTSYNQKFKGRLTISKDTSKNQVVLTMTNMDPVDTATYYCARGGTGFAYWGQG VL: DIQMTQSPSSLSASVGDRVTITCKASQSVSNDVAWYQQKPGQAPRLLIYYASNRYTGIPPRFSGSGYGTDFTLTINNIESEDAAYYFCQQDYSSPWTFGQG |  |  | extremely good safety profile

— patent publication US20250215071A1, “Novel Mcl-1 inhibitor and combination of Mcl-1 and a BH3 mimetic, such as a Bcl-2 inhibitor” (NETRIS PHARMA, priority 2022, published 2025)
